# Reference: patent US8912121B2, “Herbicidal compositions comprising 4-amino-3-chloro-5-fluoro-6-(4-chloro-2-fluoro-3-methoxyphenyl)pyridine-2-carboxylic acid or a derivative thereof and certain PS II inhibitors” (Dow Agrosciences LLC, priority 2012, dated 2014)
# System: SETFA (Setaria faberi, giant foxtail)
# Test: Pre-emergence soil-applied mixtures, greenhouse
# Assay type: in vivo, Setaria faberi Herrm.
# Details: for Visual Weed Control (%) Obs: 27 DAA
# Text: Seeds or nutlets of the desired test plant species were planted in a soil matrix prepared by mixing a loam soil (32 percent silt, 23 percent clay, and 45 percent sand, with a pH of about 6.5 and an organic matter content of about 1.9 percent) and calcareous grit in an 80 to 20 ratio. The soil matrix was contained in plastic pots with a volume of 1 quart and a surface area of 83.6 square centimeters (cm^2).
# Treatments consisted of the benzyl ester of 4-amino-3-chloro-5-fluoro-6-(4-chloro-2-fluoro-3-methoxy-phenyl)pyridine-2-carboxylic acid (compound A) formulated as an SC (suspension concentrate) and various herbicidal components alone and in combination. Forms of compound A were applied on an acid equivalent basis.
# Other herbicidal components were applied on an acid equivalent or active ingredient basis and included the PSII-inhibiting herbicides, atrazine formulated as Atrazine® 90WDG, metribuzin formulated as Metribuzin 75DF, simazine formulated as Princep Caliber 90, tebuthiuron formulated as Spike 80DF, cyanazine (technical grade material), hexazinone (technical grade material), linuron (technical grade material), terbuthylazine (technical grade material), and diuron formulated as Diuron 4L.
# Treatment requirements were calculated based upon the rates being tested, the concentration of active ingredient or acid equivalent in the formulation, and a 12 mL application volume at a rate of 187 L/ha.
# For treatments comprised of formulated compounds, measured amounts of compounds were placed individually in 25 mL glass vials and diluted in a volume of 1.25% (v/v) Agri-Dex® crop oil concentrate (COC) to obtain 12× stock solutions. […] Application solutions were prepared by adding an appropriate amount of each stock solution (e.g., 1 mL) and diluted to the appropriate final concentrations with the addition of 10 mL of an aqueous mixture of 1.25% (v/v) COC so that the final spray solutions contained 1.25% (v/v) COC.
# For treatments comprised of technical compounds, weighed amounts can be placed individually in 25 mL glass vials and dissolved in a volume of 97:3 (v/v) acetone/DMSO to obtain 12× stock solutions. […] Application solutions can be prepared by adding an appropriate amount of each stock solution (e.g., 1 mL) and diluted to the appropriate final concentrations with the addition of 10 mL of an aqueous mixture of 1.5% (v/v) COC so that the final spray solutions contain 1.25% (v/v) COC. When technical materials are used, the concentrated stock solutions can be added to the spray solutions so that the final acetone and DMSO concentrations of the application solutions are 16.2% and 0.5%, respectively.
# For treatments comprised of formulated and technical compounds, weighed amounts of the technical materials can be placed individually in 25 mL glass vials and dissolved in a volume of 97:3 (v/v) acetone/DMSO to obtain 12× stock solutions, and measured amounts of the formulated compounds can be placed individually in 25 mL glass vials and diluted in a volume of 1.5% (v/v) COC or water to obtain 12× stock solutions. […] Application solutions can be prepared by adding an appropriate amount of each stock solution (e.g., 1 mL) and diluted to the appropriate final concentrations with the addition of an appropriate amount of an aqueous mixture of 1.5% (v/v) COC so that the final spray solutions contain 1.25% (v/v) COC. As required, additional water and/or 97:3 (v/v) acetone/DMSO can be added to individual application solutions so that the final acetone and DMSO concentrations of the application solutions being compared are 8.1% and 0.25%, respectively.
# All stock solutions and applications solutions were visually inspected for compound compatibility prior to application. Spray solutions were applied to the soil with an overhead Mandel track sprayer equipped with a 8002E nozzles calibrated to deliver 187 L/ha over an application area of 0.503 m^2 at a spray height of 18 inches (46 cm) above average pot height. […]
smiles,measurement,setting,value
"COc1c(Cl)ccc(-c2nc(C(=O)OCc3ccccc3)c(Cl)c(N)c2F)c1F [Compound A Benzyl Ester, benzyl ester of 4-amino-3-chloro-5-fluoro-6-(4-chloro-2-fluoro-3-methoxy-phenyl)pyridine-2-carboxylic acid]",Visual Weed Control (%) Obs,16 g ae/ha,8%
same,Visual Weed Control (%) Obs,32 g ae/ha,15%
same,Visual Weed Control (%)-29 DAA SETFA Obs,Compound A Benzyl Ester 16 g ae/ha,0%
same,Visual Weed Control (%)-29 DAA SETFA Obs,Compound A Benzyl Ester 32 g ae/ha,0%
